The results in this text go back to publication PMC9611734, “Alkaloid Derivative (Z)-3β-Ethylamino-Pregn-17(20)-en Inhibits Triple-Negative Breast Cancer Metastasis and Angiogenesis by Targeting HSP90α” (Molecules, 2022).

SMILES strings stand for the structures.

In the assay the target is T1, HSP90α (Homo sapiens, UniProt P07900).
T1 construct: gene HSP90AA1; Recombinant human HSP90 alpha protein (ab80369)
As to the kind of experiment: SPR (Biacore T200, […] binding model); supported by CETSA for HSP90 in MDA-MB-231 cells. A general note: Surface plasmon resonance follows binding to a sensor surface in real time, without labels.

Usually Kd stands for the constant that tells how readily two partners part at equilibrium. With `C/C=C1/CC[C@H]2[C@@H]3CCC4C[C@@H](NCC)CC[C@]4(C)[C@H]3CC[C@]12C` (stereo partly drawn) [compound 1, (Z)-3β-ethylamino-pregn-17(20)-en], the Kd worked out at 21 µM.
